According to patent publication US20250073358A1, “AROMATIC VINYL COMPOUND, METAL COMPLEX THEREOF, AND PREPARATION METHOD THEREFOR AND USE THEREOF” (SHANGHAI MAXINOVEL PHARMACEUTICALS CO., LTD., priority 2021, published 2025):

molecular target: PD-1/PD-L1 (Homo sapiens (Human), UniProt Q9NZQ7); assay: Homogenouse Time-Resolved Fluorescence (HTRF) binding assay, PD-1/PD-L1
Method: Homogenouse Time-Resolved Fluorescence (HTRF) binding assay was used to detect the binding ability of the compound of the present disclosure to PD-1/PD-L1.
The purchased kit (CisBio, #64CUS000C-1) contains reagents required for experiments such as PD-1, PD-L1, anti-tag1-Eu, Anti-tag2-XL665, Dilute Buffer, and Detection Buffer.
• 1. The compound was configured with 100% DMSO into 10 concentrations with a concentration gradient of 3 times. • 2. The DMSO solution of the compound was added to Dilute Buffer solution, and the mixture was mixed well and transferred to a 96-well plate. • 3. PD-L1 was diluted with Dilute Buffer solution and then added to the above 96-well plate. • 4. PD-1 was diluted with Dilute Buffer solution and then added to the above 96-well plate, and incubated at room temperature for 30 minutes. • 5. One part of anti-tag1-Eu and one part of Anti-tag2-XL665 were added to Detection Buffer solution, and the mixture was mixed well and transferred to the above 96-well plate. • 6. The mixture in the 96-well plate was incubated at room temperature for 1 to 24 hours. • 7. The HTRF values were read with Envision.

PD-1/PD-L1, sequence (Q9NZQ7 19-238): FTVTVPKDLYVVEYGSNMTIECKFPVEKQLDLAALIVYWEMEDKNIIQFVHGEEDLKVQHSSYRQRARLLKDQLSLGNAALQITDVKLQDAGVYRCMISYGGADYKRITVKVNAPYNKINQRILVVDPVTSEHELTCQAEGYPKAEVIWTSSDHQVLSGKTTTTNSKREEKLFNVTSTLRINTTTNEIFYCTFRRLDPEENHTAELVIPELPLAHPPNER

IC50 [nM] | Compound
13.2 | Cc1cc(CN2CCCC[C@H]2C(=O)O)c(OCCCCCN2CCN(CC(=O)O)CCN(CC(=O)O)CCN(CC(=O)O)CC2)cc1/C=C/c1cccc(-c2ccccc2)c1C [Compound 71]
9.22 | Cc1ccc(CCCC(=O)NCCCC[C@H](NC(=O)CN2CCN(CC(=O)O)CCN(CC(=O)O)CCN(CC(=O)O)CC2)C(=O)NCCOCCOc2cc(/C=C/c3cccc(-c4ccccc4)c3C)c(C(F)(F)F)cc2CN2CCCC[C@H]2C(=O)O)cc1 [Compound 30]
24.8 | Cc1c(/C=C/c2cc(OCCOCCN3CCN(CC(=O)O)CCN(CC(=O)O)CCN(CC(=O)O)CC3)c(CN3CCCC[C@@H]3C(=O)O)cc2C(F)(F)F)cccc1-c1ccccc1 [Compound 69]
3.16 | Cc1c(/C=C/c2cc(OCCNC(=O)CN3CCN(CC(=O)O)CCN(CC(=O)O)CCN(CC(=O)O)CC3)c(CN3CCCC[C@H]3C(=O)O)cc2C(F)(F)F)cccc1-c1ccccc1 [Compound 3, (2S)-1-({4-[(1E)-2-(2-Methyl-3-phenylphenyl)vinyl]-5-(trifluoromethyl)-2-{[2-({2-[4,7,10-tris(carboxymethyl)-1,4,7,10-tetraazacyclododecan-1-yl]acetyl}amino)ethyl]oxy}phenyl}methyl)hexahydropyridine-2-carboxylic acid]
0.901 | Cc1c(/C=C/c2cc(OCCNC(=O)C3CCN(C(=O)CN4CCN(CC(=O)O)CCN(CC(=O)O)CCN(CC(=O)O)CC4)CC3)c(CN3CCCC[C@H]3C(=O)O)cc2C(F)(F)F)cccc1-c1ccccc1 [Compound 18]
5.47 | N#Cc1c(-c2ccccc2)ccnc1/C=C/c1cc(OCC2CCN(C(=O)CN3CCN(CC(=O)O)CCN(CC(=O)O)CC3)CC2)c(CN2CCCC[C@H]2C(=O)O)cc1C(F)(F)F [Compound 59]
169 | Cc1ccc(CCCC(=O)NCCCC[C@H](NC(=O)CN2CCN(CC(=O)O)CCN(CC(=O)O)CCN(CC(=O)O)CC2)C(=O)NCCOc2cc(/C=C/c3cccc(-c4ccccc4)c3C)c(C(F)(F)F)cc2CN2CCCC[C@H]2C(=O)O)cc1 [Compound 10]
1.29 | Cc1c(/C=C/c2cc(OCCOCCN3CCN(CC(=O)O)CCN(CC(=O)O)CCN(CC(=O)O)CC3)c(CN3CCCC[C@H]3C(=O)O)cc2C(F)(F)F)cccc1-c1ccccc1 [Compound 2]
4.83 | N#Cc1c(-c2ccccc2)ccnc1/C=C/c1cc(OCCCCCN2CCN(CC(=O)O)CCN(CC(=O)O)CC2)c(CN2CCCC[C@H]2C(=O)O)cc1C(F)(F)F [Compound 57]
0.888 | Cc1c(/C=C/c2cc(OCCCCNC(=O)CN3CCN(CC(=O)O)CCN(CC(=O)O)CCN(CC(=O)O)CC3)c(CN3CCCC[C@H]3C(=O)O)cc2C(F)(F)F)cccc1-c1ccccc1 [Compound 4, (2S)-1-({4-[(1E)-2-(2-Methyl-3-phenylphenyl)vinyl]-5-(trifluoromethyl)-2-{[4-({2-[4,7,10-tris(carboxymethyl)-1,4,7,10-tetraazacyclododecan-1-yl]acetyl}amino)butyl]oxy}phenyl}methyl)hexahydropyridine-2-carboxylic acid]
1.07 | Cc1c(/C=C/c2cc(OCCNC(=O)C3CCC(CNC(=O)CN4CCN(CC(=O)O)CCN(CC(=O)O)CCN(CC(=O)O)CC4)CC3)c(CN3CCCC[C@H]3C(=O)O)cc2C(F)(F)F)cccc1-c1ccccc1 (stereo partly drawn) [Compound 9]
0.603 | Cc1c(/C=C/c2cc(OCCOCCNC(=O)CN3CCN(CC(=O)O)CCN(CC(=O)O)CCN(CC(=O)O)CC3)c(CN3CCCC[C@H]3C(=O)O)cc2C(F)(F)F)cccc1-c1ccccc1 [Compound 31]

Compound | IC50 [nM]
Cc1c(/C=C/c2cc(OCC3CCN(C(=O)CN4CCN(CC(=O)O)CCN(CC(=O)O)CCN(CC(=O)O)CC4)CC3)c(CN3CCCC[C@H]3C(=O)O)cc2C(F)(F)F)cccc1-c1ccccc1 [Compound 19] | 0.869
Cc1c(/C=C/c2cc(OCCCCCCNC(=O)CN3CCN(CC(=O)O)CCN(CC(=O)O)CCN(CC(=O)O)CC3)c(CN3CCCC[C@H]3C(=O)O)cc2C(F)(F)F)cccc1-c1ccccc1 [Compound 23] | 0.833
Cc1ccc(CCCC(=O)NCCCC[C@H](NC(=O)CN2CCN(CC(=O)O)CCN(CC(=O)O)CCN(CC(=O)O)CC2)C(=O)NCCCCCCOc2cc(/C=C/c3cccc(-c4ccccc4)c3C)c(C(F)(F)F)cc2CN2CCCC[C@H]2C(=O)O)cc1 [Compound 25] | 16.2
